Measured values reported in US7863325B2, “Crystalline genistein sodium salt dihydrate” (Axcentua Pharmaceuticals AB, priority 2008, dated 2011).
Read-outs that look alike come from different tables or passages of the source.

Tests used:
[1] = Disproportionation study (slurry in distilled water, XRPD, pH); type: physicochemical; conditions: 50 mg slurried in 250 μL distilled water ca. 48 hours
Method: A 50 mg sample of crystalline genistein sodium salt dihydrate was slurried in 250 μL distilled water for ca. 48 hours and then checked by XRPD for disproportionation. The pH of the supernatant was also measured using a Corning 240 pH meter. […] The pH of the supernatant after slurrying was 7.1.

[2] = Hydration study (IPA/water mixtures, XRPD and TGA); type: physicochemical; conditions: IPA/water mixtures (3%, 5% and 10%), ca. 48 hours, ambient temperature
Method: Approximately 100 mg of crystalline genistein sodium salt dihydrate were placed in ca. 500 μL IPA/water mixtures (3%, 5% and 10%) at the water level. Each mixture was agitated for ca. 48 hours at ambient temperature and then filtered to recover the solid for XRPD and TGA studies.

[3] = rat
Method: Preparation of Dosing Solutions for In-Vivo Study: Genistein and Crystalline genistein sodium salt dihydrate were stored at room temperature under desiccant and protected from light. The dosing solutions were prepared fresh from powders on the day of dosing. The dosing solution for intravenous administration (IV) was prepared at 1 mg/mL (free acid) in 50:50 DMSO:saline. The dosing solutions for intraduodenal administration (ID) were prepared at 2 mg/mL (genistein free acid) in a 0.2% sodium carboxymethyl cellulose (Na CMC) solution in water.
Animal Dosing: The pharmacokinetics of genistein was evaluated in fasted male Sprague-Dawley rats. Each animal was fitted with a jugular vein cannula (JVC) for blood sampling. Animals intended for intravenous dosing were fitted with an additional JVC for dose administration. Animals intended for intraduodenal dosing were fitted with an intraduodenal cannula (IDC) for dose administration. Surgically modified animals were housed one per cage. All animals were supplied with a commercial rodent diet (LabDiet, Certified Rodent Diet #5002) ad libitum prior to study initiation. […] Water was supplied ad libitum.
Intraduodenal dosing solutions were administered as a single bolus dose at time zero on the day of dosing. Intravenous doses were administered as a slow IV injection over approximately 1 minute. Blood sampling times began at the end of the infusion. Blood samples were collected.
Each blood sample was collected from the rats via a jugular vein cannula and placed into chilled polypropylene tubes containing sodium heparin as an anticoagulant. Samples were centrifuged at a temperature of 4° C. and at a speed of 13,000 rpm for 5 minutes. Samples were maintained chilled throughout processing. Each plasma sample was split into two aliquots. The first aliquot contained 50 μL of plasma. All remaining plasma volume was used for the second aliquot. Samples were then placed on dry ice, and stored in a freezer set to maintain −60° C. to −80° C. The total concentration of genistein in plasma samples were analyzed by LC-MS/MS after an overnight incubation with glucuronidase/arylsulfatase enzyme mixture. Pharmacokinetic parameters were calculated using the WinNonlin software.
Analysis of Plasma Samples: An LC-MS/MS analytical method for the determination of genistein in rat plasma was developed. Prior to sample analysis, a standard curve was analyzed to determine the specificity, range, and linearity of the method. Total genistein in plasma samples was determined by pre-treating all samples with β-glucuronidase/arylsulfatase enzymes and incubating prior to analysis. Incubation with the enzyme mix deconjugated any glucuronide or sulfate metabolites of genistein back to the parent form.
Acceptance Criteria for LC-MS/MS Analysis: One standard curve was dispersed throughout each analytical run. At least ⅝ of the standards must be accurate to within ±20%, except at the LLOQ where ±25% is acceptable, in order for the run to pass.
Pharmacokinetic Analysis: Individual plasma concentrations versus time data for genistein were subjected to non-compartmental analysis using the pharmacokinetic program WinNonlin v. […] Plasma concentrations below the limit of quantitation (10 ng/mL) were assigned a value of zero for PK analysis only.

[4] = Solubility in different solvents (aliquot addition until dissolution); type: physicochemical
Method: Solubility in different solvents: Solubility in different organic solvents was measured using the following protocol. Approximately 25 mg portions of genistein and crystalline genistein sodium dihydrate salt were placed in 48 different vials, separately. 5 volume aliquots of each solvent were added exclusively to a vial. Between each addition, the mixture was checked for dissolution and if no dissolution was apparent, the procedure was continued until dissolution was observed or when 50 volumes had been added.

[5] = Gravimetric vapor sorption (GVS); type: physicochemical
Method: Gravimetric Vapor Sorption (GVS): Approximately 15 mg of sample was placed into a wire-mesh vapor sorption balance pan and loaded into an SMS intrinsic vapor sorption balance supplied (Surface Measurement Systems Instruments). The sample was then dried by maintaining a 0% humidity environment until no further weight change was recorded. Subsequently, the sample was then subjected to a ramping profile from 0-90% RH at 10% RH increments, maintaining the sample at each step until equilibration had been attained (99.5% step completion). Upon reaching equilibration, the % RH within the apparatus was ramped to the next step and the equilibration procedure repeated. After completion of the sorption cycle, the sample was then dried using the same procedure. The weight change during the sorption/desorption cycles were then monitored, allowing for the hygroscopic nature of the sample to be determined.
However, between 20 and 70 RH % (typical working range of material) only ca. 2% moisture change was observed.

[6] = SuperSol 1000 kinetic and equilibrium solubility assay
[7] = Stability study (80° C., 40° C./75 RH %, light; XRPD and colour); type: physicochemical
Method: Sample stability was tested at 80° C. for 7 days and at 40° C./75 RH % for 7 days. Observations such as color change were noted after 7 days and XRPD of samples were taken after 7 days to investigate any solid form change.

[8] = Aqueous solubility (slurry shaken ca. 24 hours, filtered, HPLC); type: physicochemical; conditions: aqueous buffer, thermodynamic from solid
Method: Aqueous Solubility: Aqueous solubility was measured using the following protocol. Slurries of genistein and of crystalline genistein sodium dihydrate salt were made up in aqueous media in which pH was set at 4.5, 6.7, and 7.5, each slurry was shaken at ambient temperature for ca. 24 hours and then filtered using a 0.2 μm filter into a clean vial. The saturated solutions were then diluted and analyzed for API (genistein) content using N-Ac-DL-Methionine on a Chirobiotic T HPLC column and UV detector set at λmax=270 nm. The mobile phase was acetonitrile/water run in isocratic mode over a 30 minute period. The results are presented in Table 3, (BDL=below detection limits).

[9] = intravenous, 1 mg/kg, mean ± SD, n = 3

With O.O.O=c1c(-c2ccc(O)cc2)coc2cc(O)cc(O)c12.[Na] [genistein sodium salt dihydrate] the “Disproportionation (XRPD)” value [1] was “No signs of disproportionation”, the “pH of the supernatant after slurrying” value [1] was 7.1 and the “Hydrate formation (XRPD, TGA)” value [2] was “no further hydrates”. The “Time after ID dosing at which Cmax was observed” value ([3]; intraduodenal dosing, mean profile (FIG. 13)) was no more than 15 min, the AUClast ([3]; intraduodenal, 20 mg/kg, mean ± SD, n = 3) was 1161 ± 358 kg·ng·h/mL/mg and the “Pharmacokinetic profile following IV dosing, compared between the two forms” value ([3]; intravenous, 1 mg/kg) was “not significantly different”. For the same compound, the AUClast [3, 9] was 2129 ± 331 kg·ng·h/mL/mg, the “AUC∞” value [3, 9] was 2189 ± 356 kg·ng·h/mL/mg and the solubility ([4]; aqueous with cosolvent or surfactant or cyclodextrin, thermodynamic from solid, Acetone/Water (50:50)) was 69.6 mg/mL. It also gave a solubility ([4]; organic solvent or mixture, thermodynamic from solid, 1,4-dioxane) of less than 10.6 mg/mL, a solubility ([4]; organic solvent or mixture, thermodynamic from solid, 1-Butanol (BuOH)) of 19.3 mg/mL and a solubility ([4]; organic solvent or mixture, thermodynamic from solid, 2-Propanol (IPA)) of less than 10.2 mg/mL. It also gave a solubility ([4]; organic solvent or mixture, thermodynamic from solid, Acetone) of less than 10.2 mg/mL, a solubility ([4]; organic solvent or mixture, thermodynamic from solid, Acetone/IPA (50:50)) of 20.2 mg/mL and a solubility ([4]; organic solvent or mixture, thermodynamic from solid, Acetonitrile (MeCN)) of less than 10.4 mg/mL. It also gave a solubility ([4]; organic solvent or mixture, thermodynamic from solid, Cyclohexane) of less than 10.9 mg/mL, a solubility ([4]; organic solvent or mixture, thermodynamic from solid, Dichloromethane (DCM)) of less than 10.8 mg/mL and a solubility ([4]; organic solvent or mixture, thermodynamic from solid, Diisopropylether (DIPE)) of less than 9.7 mg/mL. The solubility ([4]; organic solvent or mixture, thermodynamic from solid, Dimethyl sulfoxide (DMSO)) was greater than 235 mg/mL, the solubility ([4]; organic solvent or mixture, thermodynamic from solid, Ethanol (EtOH)) was 98 mg/mL and the solubility ([4]; organic solvent or mixture, thermodynamic from solid, Heptane) was less than 9.9 mg/mL. The solubility ([4]; organic solvent or mixture, thermodynamic from solid, Methanol (MeOH)) was less than 8.8 mg/mL, the solubility ([4]; organic solvent or mixture, thermodynamic from solid, Methyl acetate (MeOAc)) was less than 10.2 mg/mL and the solubility ([4]; organic solvent or mixture, thermodynamic from solid, Methyl isobutyl ketone (MIBK)) was less than 9 mg/mL. For the same compound, the solubility ([4]; organic solvent or mixture, thermodynamic from solid, Methylethyl ketone (MEK)) was less than 9.2 mg/mL, the solubility ([4]; organic solvent or mixture, thermodynamic from solid, N-Methyl-2-pyrrolidinone (NMP)) was 90.4 mg/mL and the solubility ([4]; organic solvent or mixture, thermodynamic from solid, N-N-dimethylformamide (DMF)) was greater than 218 mg/mL. For the same compound, the solubility ([4]; organic solvent or mixture, thermodynamic from solid, Octanol) was less than 11 mg/mL, the solubility ([4]; organic solvent or mixture, thermodynamic from solid, Tetrahydrofuran (THF)) was less than 10.4 mg/mL and the solubility ([4]; organic solvent or mixture, thermodynamic from solid, Toluene) was less than 9.9 mg/mL. For the same compound, the solubility ([4]; organic solvent or mixture, thermodynamic from solid, Toluene/Dioxane (50:50)) was less than 9.7 mg/mL, the solubility ([4]; organic solvent or mixture, thermodynamic from solid, tert-Butylmethyl ether (TBME)) was less than 9.2 mg/mL and the “Maximum water adsorbed (GVS)” value ([5]; 0-90% RH cycle) was 45 wt %. The “Moisture change (GVS)” value ([5]; between 20 and 70 RH %) was “ca. 2%”, the “C[Eq] (late kinetic solubility)” value ([6]; EtOH 100%) was 11.20 mg×1^−1 and the “C[MSS] (early kinetic solubility)” value ([6]; EtOH 100%) was 10.85 mg×1^−1. For the same compound, the “ISI (Intrinsic Solubility Index)” value ([6]; EtOH 100%) was 0.07, the “ISI / late solubility profile, rating in words” value (“ISI / late solubility profile” below) ([6]; EtOH 100%) was “poor” and the “KSR (Kinetic Solubility ratio)” value ([6]; EtOH 100%) was 0.97. The “KSR, rating in words” value ([6]; EtOH 100%) was “excellent”, the “MSS (Maximum Solubility Speed)” value ([6]; EtOH 100%) was 36.90 mg×1^−1×min^−1 and the “MSS, rating in words” value ([6]; EtOH 100%) was “excellent”. The “ΔC [C, − CMSS]” value ([6]; EtOH 100%) was 0.35 mg×1^−1, the “C[Eq] (late kinetic solubility)” value ([6]; EtOH/dH2O 50/50 (vol/vol)) was 17.40 mg×1^−1 and the “C[MSS] (early kinetic solubility)” value ([6]; EtOH/dH2O 50/50 (vol/vol)) was 14.67 mg×1^−1. For the same compound, the “ISI (Intrinsic Solubility Index)” value ([6]; EtOH/dH2O 50/50 (vol/vol)) was 0.60, the “ISI / late solubility profile” value ([6]; EtOH/dH2O 50/50 (vol/vol)) was “good-to-acceptable” and the “KSR (Kinetic Solubility ratio)” value ([6]; EtOH/dH2O 50/50 (vol/vol)) was 0.84. For the same compound, the “KSR, rating in words” value ([6]; EtOH/dH2O 50/50 (vol/vol)) was “excellent”, the “MSS (Maximum Solubility Speed)” value ([6]; EtOH/dH2O 50/50 (vol/vol)) was 20.66 mg×1^−1×min^−1 and the “MSS, rating in words” value ([6]; EtOH/dH2O 50/50 (vol/vol)) was “excellent”. For the same compound, the “ΔC [CEq − CMSS]” value ([6]; EtOH/dH2O 50/50 (vol/vol)) was 2.73 mg×1^−1, the “C[Eq] (late kinetic solubility)” value ([6]; EtOH/dH2O 75/25 (vol/vol)) was 15.86 mg×1^−1 and the “C[MSS] (early kinetic solubility)” value ([6]; EtOH/dH2O 75/25 (vol/vol)) was 11.20 mg×1^−1. The “ISI (Intrinsic Solubility Index)” value ([6]; EtOH/dH2O 75/25 (vol/vol)) was 1.26, the “ISI / late solubility profile” value ([6]; EtOH/dH2O 75/25 (vol/vol)) was “excellent” and the “KSR (Kinetic Solubility ratio)” value ([6]; EtOH/dH2O 75/25 (vol/vol)) was 0.71. For the same compound, the “KSR, rating in words” value ([6]; EtOH/dH2O 75/25 (vol/vol)) was “excellent”, the “MSS (Maximum Solubility Speed)” value ([6]; EtOH/dH2O 75/25 (vol/vol)) was 37.33 mg×1^−1×min^−1 and the “MSS, rating in words” value ([6]; EtOH/dH2O 75/25 (vol/vol)) was “excellent”. For the same compound, the “ΔC [CEq − CMSS]” value ([6]; EtOH/dH2O 75/25 (vol/vol)) was 4.66 mg×1^−1, the “Solid form stability (XRPD, colour)” value ([7]; 40° C./75 RH % for 7 days) was “no change” and the “Solid form stability (XRPD, colour)” value ([7]; 80° C. for 7 days) was “slight loss in crystallinity”. The Light stability ([7]; 7 day light stability tests) was “no change in color or solid form”, the solubility ([8]; Water/slurry pH 4.5, ambient temperature) was 0.136 mg/mL and the solubility ([8]; Water/slurry pH 6.7, ambient temperature) was 0.707 mg/mL. The solubility ([8]; Water/slurry pH 7.5, ambient temperature) was 0.65 mg/mL.
